The target of the experiment is recombinant human SAE enzyme (Homo sapiens (Human), UniProt Q9UBT2). The experiment is described as follows: SAE HTRF enzyme assay. It is filed as biochemical. The note with it: for Percent Inhibition: Concentration 0.111 μM; for IC50: class symbols A/B/C. The method in brief:
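This HTRF format monitors Sumo-Flag–Ubc9-GST thioester formation catalysed by 0.11 nM human SAE with 0.5 μM ATP over 105 min at 24° C. Inhibition is expressed at a single concentration or as IC50.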

Where only a bound is given, the exact number is not on record here.

Sequence of recombinant human SAE enzyme (Q9UBT2 whole entry): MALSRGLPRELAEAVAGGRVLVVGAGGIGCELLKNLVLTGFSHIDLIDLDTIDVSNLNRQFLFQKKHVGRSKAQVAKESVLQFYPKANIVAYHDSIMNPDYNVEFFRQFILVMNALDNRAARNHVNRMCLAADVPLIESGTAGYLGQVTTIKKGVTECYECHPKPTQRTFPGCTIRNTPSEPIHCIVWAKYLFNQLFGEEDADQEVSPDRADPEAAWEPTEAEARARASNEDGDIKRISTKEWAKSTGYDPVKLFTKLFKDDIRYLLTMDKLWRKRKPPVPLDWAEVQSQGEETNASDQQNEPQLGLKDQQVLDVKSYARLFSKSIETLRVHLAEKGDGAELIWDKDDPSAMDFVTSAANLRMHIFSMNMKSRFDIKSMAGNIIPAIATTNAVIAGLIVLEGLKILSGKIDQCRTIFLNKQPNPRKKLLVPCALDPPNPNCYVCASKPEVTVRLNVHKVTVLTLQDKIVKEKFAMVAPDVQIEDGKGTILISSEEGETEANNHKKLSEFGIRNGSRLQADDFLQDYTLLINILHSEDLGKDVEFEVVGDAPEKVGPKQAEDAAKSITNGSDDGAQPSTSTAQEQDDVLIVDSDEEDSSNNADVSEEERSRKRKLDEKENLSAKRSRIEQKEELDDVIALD
Sequence of recombinant human SAE enzyme (Q9UBE0 whole entry partner): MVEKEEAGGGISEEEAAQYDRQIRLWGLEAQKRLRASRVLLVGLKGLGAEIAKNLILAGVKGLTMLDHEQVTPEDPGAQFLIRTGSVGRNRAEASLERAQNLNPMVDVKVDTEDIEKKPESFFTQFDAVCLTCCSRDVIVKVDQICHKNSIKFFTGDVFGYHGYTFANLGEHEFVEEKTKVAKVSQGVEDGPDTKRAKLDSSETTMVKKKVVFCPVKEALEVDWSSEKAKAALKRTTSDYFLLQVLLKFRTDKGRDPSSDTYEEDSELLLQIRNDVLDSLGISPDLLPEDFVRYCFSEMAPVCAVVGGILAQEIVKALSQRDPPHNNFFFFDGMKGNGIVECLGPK

The IC50 is the concentration at which inhibition is half-maximal. `C[C@@](O)(c1cccc(Cl)c1)c1cc(C(=O)c2cncnc2N[C@@H]2C[C@H](COS(N)(=O)=O)[C@@H](O)C2)sc1Cl` (mixture of isomers) [I-102, [(1R,2S,4R)-4-{[5-({5-Chloro-4-[(1S)-1-(3-chlorophenyl)-1-hydroxyethyl]-2-thienyl}carbonyl)pyrimidin-4-yl]amino}-2-hydroxycyclopentyl]methyl sulfamate and [(1R,2S,4R)-4-{[5-({5-Chloro-4-[(1R)-1-(3-chlorophenyl)-1-hydroxyethyl]-2-thienyl}carbonyl)pyrimidin-4 yl]amino}-2-hydroxycyclopentyl]methyl sulfamate]: the “Percent Inhibition” value is on record as 94 and the IC50 is less than 10 nM.

Consider `NS(=O)(=O)OC[C@H]1C[C@@H](Nc2ncncc2C(=O)c2cc([C@H](O)c3ccc(Cl)s3)c(Cl)s2)C[C@@H]1O` (mixture of isomers) [I-103, [(1R,2S,4R)-4-{[5-({5-chloro-4-[(S)-(5-chloro-2-thienyl)(hydroxy)methyl]-2-thienyl}carbonyl)pyrimidin-4-yl]amino}-2-hydroxycyclopentyl]methyl sulfamate and [(1R,2S,4R)-4-{[5-({5-chloro-4-[(R)-(5-chloro-2-thienyl)(hydroxy)methyl]-2-thienyl}carbonyl)pyrimidin-4-yl]amino}-2-hydroxycyclopentyl]methyl sulfamate], for which the “Percent Inhibition” value is listed as 96 and the 50% inhibitory concentration (IC50) is less than 10 nM.

In the case of `NS(=O)(=O)OC[C@H]1C[C@@H](Nc2ncncc2C(=O)c2cc([C@@]3(C4=CCCCC4)CCCO3)cs2)C[C@@H]1O` (mixture of isomers) [I-116, [(1R,2S,4R)-4-{[5-({4-[(2S)-2-(cyclohex-1-en-1-yl)tetrahydrofuran-2-yl]-2-thienyl}carbonyl)pyrimidin-4-yl]amino}-2-hydroxycyclopentyl]methyl sulfamate and [(1R,2S,4R)-4-{[5-({4-[(2R)-2-(cyclohex-1-en-1-yl)tetrahydrofuran-2-yl]-2-thienyl}carbonyl)pyrimidin-4-yl]amino}-2-hydroxycyclopentyl]methyl sulfamate], the “Percent Inhibition” value came to 96 and the 50% inhibitory concentration (IC50) was less than 10 nM.

Turning to `C[C@@H](c1cccc(Cl)c1)c1csc(C(=O)c2cncnc2N[C@@H]2C[C@H](COS(N)(=O)=O)[C@@H](O)C2)c1` (mixture of isomers) [I-117, [(1R,2S,4R)-4-{[5-({4-[(1S)-1-(3-chlorophenyl)ethyl]-2-thienyl}carbonyl)pyrimidin-4-yl]amino}-2-hydroxycyclopentyl]methyl sulfamate and [(1R,2S,4R)-4-{[5-({4-[(1R)-1-(3-chlorophenyl)ethyl]-2-thienyl}carbonyl)pyrimidin-4-yl]amino}-2-hydroxycyclopentyl]methyl sulfamate], the “Percent Inhibition” value is listed as 93 and the IC50 is less than 10 nM.

Turning to `Cc1sc(C(=O)c2cncnc2N[C@@H]2C[C@H](COS(N)(=O)=O)[C@@H](O)C2)cc1[C@@]1(c2ccccc2)CCCO1` (mixture of isomers) [I-121, [(1R,2S,4R)-2-hydroxy-4-{[5-({5-methyl-4-[(2S)-2-phenyltetrahydrofuran-2-yl]-2-thienyl}carbonyl)pyrimidin-4-yl]amino}cyclopentyl]methyl sulfamate and [(1R,2S,4R)-2-hydroxy-4-{[5-({5-methyl-4-[(2R)-2-phenyltetrahydrofuran-2-yl]-2-thienyl}carbonyl)pyrimidin-4-yl]amino}cyclopentyl]methyl sulfamate], the “Percent Inhibition” value is listed as 98 and the IC50 was less than 10 nM.

As for `NS(=O)(=O)OC[C@H]1C[C@@H](Nc2ncncc2C(=O)c2cc([S@+]([O-])c3cccc(C(F)(F)F)c3)c(Cl)s2)C[C@@H]1O` (mixture of isomers) [I-122, [(1R,2S,4R)-4-({5-[(5-chloro-4-{(R)-[3-(trifluoromethyl)phenyl]sulfinyl}-2-thienyl)carbonyl]pyrimidin-4-yl}amino)-2-hydroxycyclopentyl]methyl sulfamate and [(1R,2S,4R)-4-({5-[(5-chloro-4-{(S)-[3-(trifluoromethyl)phenyl]sulfinyl}-2-thienyl)carbonyl]pyrimidin-4-yl}amino)-2-hydroxycyclopentyl]methyl sulfamate], the “Percent Inhibition” value is recorded as 98 and the concentration for half-maximal inhibition (IC50) was less than 10 nM.

`Cc1sc(C(=O)c2cncnc2N[C@@H]2C[C@H](COS(N)(=O)=O)[C@@H](O)C2)cc1[C@H](C)c1cccc(Cl)c1` (mixture of isomers) [I-135, [(1R,2S,4R)-4-{[5-({4-[(1R)-1-(3-chlorophenyl)ethyl]-5-methyl-2-thienyl}carbonyl)pyrimidin-4-yl]amino}-2-hydroxycyclopentyl]methyl sulfamate and [(1R,2S,4R)-4-{[5-({4-[(1S)-1-(3-chlorophenyl)ethyl]-5-methyl-2-thienyl}carbonyl)pyrimidin-4-yl]amino}-2-hydroxycyclopentyl]methyl sulfamate]: the “Percent Inhibition” value is 94 and the IC50 is 10 to 100 nM.

Turning to `C=C(C)[C@H](O)c1cc(C(=O)c2cncnc2N[C@@H]2C[C@H](COS(N)(=O)=O)[C@@H](O)C2)sc1Cl` (mixture of isomers) [I-141, [(1R,2S,4R)-4-{[5-({5-chloro-4-[(1S)-1-hydroxy-2-methylprop-2-en-1-yl]-2-thienyl}carbonyl)pyrimidin-4-yl]amino}-2-hydroxycyclopentyl]methyl sulfamate and [(1R,2S,4R)-4-{[5-({5-chloro-4-[(1R)-1-hydroxy-2-methylprop-2-en-1-yl]-2-thienyl}carbonyl)pyrimidin-4-yl]amino}-2-hydroxycyclopentyl]methyl sulfamate], the “Percent Inhibition” value is 95 and the half-maximal inhibitory concentration (IC50) was less than 10 nM.

On to `NS(=O)(=O)OC[C@H]1C[C@@H](Nc2ncncc2C(=O)c2cc([C@H](O)c3cc(Cl)ccc3Cl)c(Cl)s2)C[C@@H]1O` (mixture of isomers) [I-149, [(1R,2S,4R)-4-{[5-({5-chloro-4-[(R)-(2,5-dichlorophenyl)(hydroxy)methyl]-2-thienyl}carbonyl)pyrimidin-4-yl]amino}-2-hydroxycyclopentyl]methyl sulfamate and [(1R,2S,4R)-4-{[5-({5-chloro-4-[(S)-(2,5-dichlorophenyl)(hydroxy)methyl]-2-thienyl}carbonyl)pyrimidin-4-yl]amino}-2-hydroxycyclopentyl]methyl sulfamate], for which the “Percent Inhibition” value is recorded as 97 and the IC50 was less than 10 nM.

Consider `CC(O)(c1cccc(Cl)c1)c1ccc(C(=O)c2cncnc2NC2CC(O)C(COS(N)(=O)=O)C2)s1` (mixture of isomers) [I-152, [(1R,2S,4R)-4-{[5-({5-[(1R)-1-(3-chlorophenyl)-1-hydroxyethyl]-2-thienyl}carbonyl)pyrimidin-4-yl]amino}-2-hydroxycyclopentyl]methyl sulfamate and [(1R,2S,4R)-4-{[5-({5-[(1S)-1-(3-chlorophenyl)-1-hydroxyethyl]-2-thienyl}carbonyl)pyrimidin-4-yl]amino}-2-hydroxycyclopentyl]methyl sulfamate], for which the “Percent Inhibition” value is on record as 93 and the half-maximal inhibitory concentration (IC50) was less than 10 nM.

For the molecule `CN(C)C(c1cccc(Cl)c1)c1csc(C(=O)c2cncnc2NC2CC(O)C(COS(N)(=O)=O)C2)c1` (mixture of isomers) [I-153, [(1R,2S,4R)-4-{[5-({4-[(R)-(3-Chlorophenyl)(dimethylamino)methyl]-2-thienyl}carbonyl)pyrimidin-4-yl]amino}-2-hydroxycyclopentyl]methyl sulfamate and [(1R,2S,4R)-4-{[5-({4-[(S)-(3-chlorophenyl)(dimethylamino)methyl]-2-thienyl}carbonyl)pyrimidin-4-yl]amino}-2-hydroxycyclopentyl]methyl sulfamate], the “Percent Inhibition” value was determined as 86 and the IC50 fell in the range of 10 to 100 nM.

On to `NS(=O)(=O)OCC1CC(Nc2ncncc2C(=O)c2cc(C3(c4cccc(Cl)c4)CCCCO3)cs2)CC1O` (mixture of isomers) [I-154, [(1R,2S,4R)-4-{[5-({4-[(2R)-2-(3-chlorophenyl)tetrahydro-2H-pyran-2-yl]-2-thienyl}carbonyl)pyrimidin-4-yl]amino}-2-hydroxycyclopentyl]methyl sulfamate and [(1R,2S,4R)-4-{[5-({4-[(2S)-2-(3-chlorophenyl)tetrahydro-2H-pyran-2-yl]-2-thienyl}carbonyl)pyrimidin-4-yl]amino}-2-hydroxycyclopentyl]methyl sulfamate], for which the “Percent Inhibition” value amounted to 95 and the IC50 is less than 10 nM.

Regarding `NS(=O)(=O)OC[C@H]1C[C@@H](Nc2ncncc2C(=O)c2cc([C@@]3(C4CCCCC4)CCCO3)cs2)C[C@@H]1O` (mixture of isomers) [I-166, [(1R,2S,4R)-4-{[5-({4-[(2S)-2-cyclohexyltetrahydrofuran-2-yl]-2-thienyl}carbonyl)pyrimidin-4-yl]amino}-2-hydroxycyclopentyl]methyl sulfamate and [(1R,2S,4R)-4-{[5-({4-[(2R)-2-cyclohexyltetrahydrofuran-2-yl]-2-thienyl}carbonyl)pyrimidin-4-yl]amino}-2-hydroxycyclopentyl]methyl sulfamate], the “Percent Inhibition” value was 93 and the half-inhibitory concentration (IC50) fell in the range of 10 to 100 nM.

Regarding `NS(=O)(=O)OC[C@H]1C[C@@H](Nc2ncncc2C(=O)c2cc([C@H](O)C3CCCCC3)c(Cl)s2)C[C@@H]1O` (mixture of isomers) [I-172, [(1R,2S,4R)-4-{[5-({5-chloro-4-[(R)-cyclohexyl(hydroxy)methyl]-2-thienyl}carbonyl)pyrimidin-4-yl]amino}-2-hydroxycyclopentyl]methyl sulfamate and [(1R,2S,4R)-4-{[5-({5-chloro-4-[(S)-cyclohexyl(hydroxy)methyl]-2-thienyl}carbonyl)pyrimidin-4-yl]amino}-2-hydroxycyclopentyl]methyl sulfamate], the “Percent Inhibition” value came out at 88 and the 50% inhibitory concentration (IC50) was in the range of 10 to 100 nM.

The record behind these values is patent publication US10780090B2, “Heteroaryl compounds useful as inhibitors of SUMO activating enzyme” (Millennium Pharmaceuticals, Inc., priority 2014, dated 2020).
